# Measured values reported in patent US20210283261A1, “Compositions and Methods for Treating ALK-Mediated Cancer” (ICAHN SCHOOL OF MEDICINE AT MOUNT SINAI, priority 2017, published 2021).
# Legend:
# Type in all cases: cell-based
# [1] = target: T1, ALK fusion protein (Homo sapiens, UniProt Q9UM73); test: Western blot of ALK fusion protein levels in NCI-H3122 cells; settings: for significantly reduced ALK fusion protein levels (degraders vs negative controls): 16 h; for Dmax at 0.5 µM: NCI-H3122, NCI-H3122 cells, read-out: ALK fusion protein degradation, NCI-H3122 (500 nM)
# T1 construct: endogenous in cells; host or cells: NCI-H3122; the other entry of the earlier key: EML4 (Q9HC35, Echinoderm microtubule-associated protein-like 4)
# Experimental: SU-DHL-1, NCI-H3122 and NCI-H2228 cells were cultured in RPMI-1640 medium supplemented with 10% fetal bovine serum, 50 μg/mL penicillin and streptomycin. Cells were cultured in a 37° C. incubator with 5% CO2.
# Cells were washed with cold PBS once and lysed in 1× Laemmli loading buffer directly. Lysates were heated at 99° C. for […], and resolved on 4-15% precast SDS-PAGE (BIO-RAD) and transferred onto PVDF membrane. Membrane was blocked in 5% milk in Tris-buffered saline and Tween 20 (TBST) for 1 h at room temperature, followed by incubation with a primary antibody overnight at 4° C., and a horseradish peroxidase (HRP)-conjugated secondary antibody for 1 h at room temperature. The membrane was imaged by a ChemiDoc MP imaging system (BIO-RAD). Antibodies against GAPDH (abeam), Phospho-ALK (Tyr1507), ALK (Cell Signaling Technology), Tubulin (Santa Cruz) were purchased commercially. […]
# [2] = target: T2, NPM-ALK fusion protein (Homo sapiens, UniProt Q9UM73); test: Western blot of NPM-ALK fusion protein levels in SU-DHL-1 cells; settings: for significantly reduced ALK fusion protein levels (degraders vs negative controls) / effect on NPM-ALK fusion protein levels, concentration dependence: 16 h; for Dmax at 0.03 µM: read-out: ALK fusion protein degradation, SU-DHL-1 (30 nM); for effect on NPM-ALK fusion protein levels, concentration dependence: SU-DHL-1 cells, 1, 3, 10, 30 or 100 nM
# T2 construct: endogenous in cells; host or cells: SU-DHL-1; the other entry of the earlier key: NPM1 (P06748, Nucleophosmin)
# Experimental: (§1) Cells were cultured in a 37° C. incubator with 5% CO2.
# (§2) Cells were washed with cold PBS once and lysed in 1× Laemmli loading buffer directly. […] Membrane was blocked in 5% milk in Tris-buffered saline and Tween 20 (TBST) for 1 h at room temperature, followed by incubation with a primary antibody overnight at 4° C., and a horseradish peroxidase (HRP)-conjugated secondary antibody for 1 h at room temperature. The membrane was imaged by a ChemiDoc MP imaging system (BIO-RAD). Antibodies against GAPDH (abeam), Phospho-ALK (Tyr1507), ALK (Cell Signaling Technology), Tubulin (Santa Cruz) were purchased commercially.
# SU-DHL-1 suspension cells were seeded in 12-well plates at a density of 6×10^5/mL and treated with DMSO or indicated compounds at 30 nM or 100 nM for indicated time.
# SU-DHL-1 cells were seeded in 12-well plates at a density of 4×10^5/mL and treated with DMSO or indicated serial dilutions of compounds for 16 h. The NPM-ALK fusion protein levels were determined by Western blot and normalized against GPADH (right panel).
# [3] = tested on: SU-DHL-1 cells; test: Cell viability assay in SU-DHL-1 cells; settings: Homo sapiens, 60 h, 2.5 days, CellTiter-Glo, read-out: GI50 (drug concentration that results in 50% growth inhibition)
# Experimental: (§3) SU-DHL-1 cells were seeded in 96-well plates at a density of 1×10^4 cells per well, in triplicate. Treated cells with DMSO or indicated serial dilutions of compounds for 2.5 days. Cell growth/survival was measured by using the CellTiter-Glo luminescent cell viability assay following the manufacturer's instructions (Promega) or CCK8 cell viability assay (Sigma). Data was analyzed by using the GraphPad Prism software, Error bars represent ±SD for triplicate experiments.
# as §3, with “assay.” for “assay following the manufacturer's instructions (Promega) or CCK8 cell viability assay (Sigma).”, “experiments (left panel).” for “experiments.”
# SU-DHL-1 cells were seeded in 96-well plates at a density of 5000 cells per well, in triplicate. The cells were treated with DMSO or indicated serial dilutions of compounds for 3 days. Cell growth was measured using the CellTiter-Glo luminescent cell viability assay. Data were analyzed using the GraphPad Prism.
# SU-DHL-1 and NCI-3122 cells were treated with DMSO or indicated serial dilutions of compounds for 3 days. Data were analyzed using the GraphPad Prism.
# [4] = tested on: ALK; test: Characterization of ALK degraders in ALCL and NSCLC cells (summary); settings: summary statement
# Excerpt: Specific exemplary ALK degraders/disruptors were characterized in various different anaplastic large cell lymphoma (ALCL) cells and non-small cell lung cancer (NSCLC) cells (Examples 4-19, FIGS. 1-18). […] This efficacy in suppressing ALK expression and ALK activity correlated with efficacy in inhibiting cancer cell proliferation.
# [5] = target: T3, EML4-ALK v3 fusion protein (Homo sapiens, UniProt Q9UM73); test: Western blot of EML4-ALK v3 fusion protein levels in NCI-H2228 cells; settings: 16 h; for effect on EML4-ALK fusion protein levels, concentration dependence: NCI-H2228 cells, 1, 3, 10, 30 or 100 nM
# T3 construct: endogenous in cells; host or cells: NCI-H2228
# Experimental: as §1, §2
# Cells were 70% confluent and treated with DMSO or indicated serial dilutions of compounds for 16 h. The EML4-ALK fusion protein levels were determined by Western blot and normalized against GPADH (right panel).
# [6] = SU-DHL-1 cells, 30 nM, Western blot
# T3 sequence (Q9UM73 1058-1620 limits assumed): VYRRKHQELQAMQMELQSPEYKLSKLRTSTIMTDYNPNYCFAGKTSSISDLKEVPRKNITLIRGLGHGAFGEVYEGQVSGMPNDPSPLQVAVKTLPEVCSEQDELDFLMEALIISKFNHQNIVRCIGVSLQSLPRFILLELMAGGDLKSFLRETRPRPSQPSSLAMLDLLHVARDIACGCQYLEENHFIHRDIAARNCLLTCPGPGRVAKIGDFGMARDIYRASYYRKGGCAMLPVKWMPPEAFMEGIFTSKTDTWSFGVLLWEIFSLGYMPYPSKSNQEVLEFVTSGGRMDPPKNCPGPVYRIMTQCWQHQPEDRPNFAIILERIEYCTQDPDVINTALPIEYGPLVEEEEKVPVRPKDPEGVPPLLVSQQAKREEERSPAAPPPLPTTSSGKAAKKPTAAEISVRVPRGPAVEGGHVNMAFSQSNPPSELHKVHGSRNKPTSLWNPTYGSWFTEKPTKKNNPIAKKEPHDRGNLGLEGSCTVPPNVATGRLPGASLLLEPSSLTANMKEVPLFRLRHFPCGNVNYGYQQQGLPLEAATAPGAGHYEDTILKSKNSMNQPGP
# T2 sequence (Q9UM73 with tags, fused parts or gaps): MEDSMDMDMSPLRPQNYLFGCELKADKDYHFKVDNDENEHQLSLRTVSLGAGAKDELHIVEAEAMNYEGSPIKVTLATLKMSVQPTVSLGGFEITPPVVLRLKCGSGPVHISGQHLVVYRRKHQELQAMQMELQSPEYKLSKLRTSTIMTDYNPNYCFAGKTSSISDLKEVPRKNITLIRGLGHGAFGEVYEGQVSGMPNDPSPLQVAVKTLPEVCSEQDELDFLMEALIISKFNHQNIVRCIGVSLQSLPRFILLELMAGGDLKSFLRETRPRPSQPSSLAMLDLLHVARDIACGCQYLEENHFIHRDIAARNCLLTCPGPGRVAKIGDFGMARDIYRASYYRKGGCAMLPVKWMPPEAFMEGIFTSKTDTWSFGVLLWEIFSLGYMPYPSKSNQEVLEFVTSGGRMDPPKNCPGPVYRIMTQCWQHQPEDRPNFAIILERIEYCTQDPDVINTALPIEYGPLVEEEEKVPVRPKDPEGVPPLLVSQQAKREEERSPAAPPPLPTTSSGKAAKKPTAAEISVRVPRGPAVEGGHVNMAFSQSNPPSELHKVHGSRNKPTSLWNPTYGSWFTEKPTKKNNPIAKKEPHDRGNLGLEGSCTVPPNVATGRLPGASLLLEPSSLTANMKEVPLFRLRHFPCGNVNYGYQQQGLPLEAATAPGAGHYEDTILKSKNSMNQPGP
# T1 sequence (Q9UM73 with tags, fused parts or gaps): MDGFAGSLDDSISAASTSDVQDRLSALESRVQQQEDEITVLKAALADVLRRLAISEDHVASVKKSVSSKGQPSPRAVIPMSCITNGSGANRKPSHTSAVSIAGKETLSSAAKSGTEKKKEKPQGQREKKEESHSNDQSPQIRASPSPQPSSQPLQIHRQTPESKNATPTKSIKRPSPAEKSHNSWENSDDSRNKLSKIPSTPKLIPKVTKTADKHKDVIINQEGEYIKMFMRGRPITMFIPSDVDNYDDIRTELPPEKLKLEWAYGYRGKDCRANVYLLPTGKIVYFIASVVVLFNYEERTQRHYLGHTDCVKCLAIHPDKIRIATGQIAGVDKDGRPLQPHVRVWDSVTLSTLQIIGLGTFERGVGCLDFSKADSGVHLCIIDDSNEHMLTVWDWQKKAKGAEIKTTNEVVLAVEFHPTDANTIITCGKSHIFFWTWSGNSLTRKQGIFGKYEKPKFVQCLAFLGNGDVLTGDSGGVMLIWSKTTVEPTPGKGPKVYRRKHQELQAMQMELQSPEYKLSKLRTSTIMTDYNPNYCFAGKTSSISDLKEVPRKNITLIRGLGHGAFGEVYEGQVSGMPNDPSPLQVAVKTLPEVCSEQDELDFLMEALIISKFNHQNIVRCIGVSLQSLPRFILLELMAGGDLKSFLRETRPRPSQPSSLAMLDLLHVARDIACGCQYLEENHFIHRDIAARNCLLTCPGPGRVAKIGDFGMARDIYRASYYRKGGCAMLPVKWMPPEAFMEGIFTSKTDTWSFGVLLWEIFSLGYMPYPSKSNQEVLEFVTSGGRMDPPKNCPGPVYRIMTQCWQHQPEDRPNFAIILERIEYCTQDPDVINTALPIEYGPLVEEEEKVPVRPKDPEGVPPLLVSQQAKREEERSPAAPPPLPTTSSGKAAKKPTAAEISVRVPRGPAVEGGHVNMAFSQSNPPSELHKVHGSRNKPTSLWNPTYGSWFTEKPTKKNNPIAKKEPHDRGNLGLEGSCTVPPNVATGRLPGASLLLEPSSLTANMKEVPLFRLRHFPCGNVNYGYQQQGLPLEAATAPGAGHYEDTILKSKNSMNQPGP
significantly reduced ALK fusion protein levels (degraders vs negative controls) ([1]; NCI-H3122 cells),significantly reduced ALK fusion protein levels (degraders vs negative controls) ([2]; SU-DHL-1 cells),"Dmax at 0.5 µM ([1]; 500 nM, Western blot) [%]","effect on EML4-ALK fusion protein levels, concentration dependence [5]","effect on NPM-ALK fusion protein levels, concentration dependence [2]",SMILES,other results
not,not,–,–,–,"Cc1cc(Nc2ncc(Cl)c(Nc3ccccc3S(=O)(=O)C(C)C)n2)c(OC(C)C)cc1C1CCN(C(=O)COCCOCC(=O)N[C@H](C(=O)N2CC(O)C[C@H]2C(=O)NCc2ccc(-c3scnc3C)cc2)C(C)(C)C)CC1 (stereo in doubt) [HC58-110, (2S,4S)-1-((S)-2-(2-(2-(2-(4-(4-((5-Chloro-4-((2-(isopropylsulfonyl)phenyl)amino)pyrimidin-2-yl)amino)-5-isopropoxy-2-methylphenyl)piperidin-1-yl)-2-oxoethoxy)ethoxy)acetamido)-3,3-dimethylbutanoyl)-4-hydroxy-N-(4-(4-methylthiazol-5-yl)benzyl)pyrrolidine-2-carboxamide]","ALK fusion protein degradation, NCI-H3122 (500 nM) ([1]; NCI-H3122 cells, 500 nM, Western blot): − (Protein degradation <20%)"
–,–,–,–,–,"Cc1cc(Nc2ncc(Cl)c(Nc3ccccc3S(=O)(=O)C(C)C)n2)c(OC(C)C)cc1C1CCN(CC(=O)NCCOCCOCCOCCOCCNc2cccc3c2C(=O)N(C2CCC(=O)NC2=O)C3=O)CC1 (stereo not drawn) [CZ40-53, 2-(4-(4-((5-Chloro-4-((2-(isopropylsulfonyl)phenyl)amino)pyrimidin-2-yl)amino)-5-isopropoxy-2-methylphenyl)piperidin-1-yl)-N-(14-((2-(2,6-dioxopiperidin-3-yl)-1,3-dioxoisoindolin-4-yl)amino)-3,6,9,12-tetraoxatetradecyl)acetamide]","GI50 [3]: < 40 nM; Dmax at 0.03 µM [2, 6]: > 80%; suppressing both ALK expression and ALK activity [4]: especially effective"
–,–,–,–,–,Cc1cc(Nc2ncc(Cl)c(Nc3ccccc3S(=O)(=O)C(C)C)n2)c(OC(C)C)cc1C1CCN(CC(=O)NCCCCCCCCCC(=O)N[C@H](C(=O)N2C[C@H](O)C[C@H]2C(=O)NCc2ccc(-c3scnc3C)cc2)C(C)(C)C)CC1 [CZ40-93],"Dmax at 0.03 µM [2, 6]: < 20%"
–,–,–,–,–,"Cc1cc(Nc2ncc(Cl)c(Nc3ccccc3S(=O)(=O)C(C)C)n2)c(OC(C)C)cc1C1CCN(CC(=O)NCCCCCCCCCCC(=O)NC(C(=O)N2CC(O)CC2C(=O)NCc2ccc(-c3scnc3C)cc2)C(C)(C)C)CC1 [CZ40-94, (2S,4R)-1-((S)-2-((11-(2-(4-(4-((5-Chloro-4-((2-(isopropylsulfonyl)phenyl)amino)pyrimidin-2-yl)amino)-5-isopropoxy-2-methylphenyl)piperidin-1-yl)acetamido)undecanamido)-3,3-dimethylbutanoyl)-4-hydroxy-N-(4-(4-methylthiazol-5-yl)benzyl)pyrrolidine-2-carboxamide]","ALK fusion protein degradation, SU-DHL-1 (30 nM) [2, 6]: + (Protein degradation 20-80%)"
–,–,< 20,no significant effect,no significant effect,"Cc1cc(Nc2ncc(Cl)c(Nc3ccccc3S(=O)(=O)C(C)C)n2)c(OC(C)C)cc1C1CCN(CC(=O)NCCNc2cccc3c2C(=O)N(C2CCC(=O)N(C)C2=O)C3=O)CC1 (stereo not drawn) [CZ47-40, 2-(4-(4-((5-Chloro-4-((2-(isopropylsulfonyl)phenyl)amino)pyrimidin-2-yl)amino)-5-isopropoxy-2-methylphenyl)piperidin-1-yl)-N-(2-((2-(l-methyl-2,6-dioxopiperidin-3-yl)-1,3-dioxoisoindolin-4-yl)amino)ethyl)acetamide]",–
–,–,< 20,no significant effect,no significant effect,"Cc1cc(Nc2ncc(Cl)c(Nc3ccccc3S(=O)(=O)C(C)C)n2)c(OC(C)C)cc1C1CCN(CC(=O)NCCOCCOCCOCCOCCOCCNc2cccc3c2C(=O)N(C2CCC(=O)N(C)C2=O)C3=O)CC1 (stereo not drawn) [CZ47-48, 2-(4-(4-((5-Chloro-4-((2-(isopropylsulfonyl)phenyl)amino)pyrimidin-2-yl)amino)-5-isopropoxy-2-methylphenyl)piperidin-1-yl)-N-(17-((2-(l-methyl-2,6-dioxopiperidin-3-yl)-1,3-dioxoisoindolin-4-yl)amino)-3,6,9,12,15-pentaoxaheptadecyl)acetamide]",–
not,not,< 20,–,–,"Cc1cc(Nc2ncc(Cl)c(Nc3ccccc3S(=O)(=O)C(C)C)n2)c(OC(C)C)cc1C1CCN(C(=O)CCCC(=O)N[C@H](C(=O)N2C[C@@H](O)C[C@H]2C(=O)NCc2ccc(-c3scnc3C)cc2)C(C)(C)C)CC1 [HC58-111, (2S,4S)-1-((S)-2-(5-(4-(4-((5-Chloro-4-((2-(isopropylsulfonyl)phenyl)amino)pyrimidin-2-yl)amino)-5-isopropoxy-2-methylphenyl)piperidin-1-yl)-5-oxopentanamido)-3,3-dimethylbutanoyl)-4-hydroxy-N-(4-(4-methylthiazol-5-yl)benzyl)pyrrolidine-2-carboxamide]",–
not,not,< 20,–,–,"Cc1cc(Nc2ncc(Cl)c(Nc3ccccc3S(=O)(=O)C(C)C)n2)c(OC(C)C)cc1C1CCN(C(=O)CCCCC(=O)N[C@H](C(=O)N2C[C@@H](O)C[C@H]2C(=O)NCc2ccc(-c3scnc3C)cc2)C(C)(C)C)CC1 [HC58-112, (2S,4S)-1-((S)-2-(6-(4-(4-((5-chloro-4-((2-(isopropylsulfonyl)phenyl)amino)pyrimidin-2-yl)amino)-5-isopropoxy-2-methylphenyl)piperidin-1-yl)-6-oxohexanamido)-3,3-dimethylbutanoyl)-4-hydroxy-N-(4-(4-methylthiazol-5-yl)benzyl)pyrrolidine-2-carboxamide]",–
–,–,–,no significant effect,no significant effect,"Cc1cc(Nc2ncc(Cl)c(Nc3ccccc3S(=O)(=O)C(C)C)n2)c(OC(C)C)cc1C1CCNCC1 [ceritinib, reference compound]","effect on ALK protein levels ([5]; NCI-H2228 cells, 100 nM): no distinct effect; effect on NPM-ALK fusion protein levels ([2]; SU-DHL-1 cells, 30 nM or 100 nM): no effect"
